Series [1] is described as follows: Absorption maximum and extinction measurement (absorbance, 1 cm path length, 10 mg/L solutions). The series is classed as physicochemical. Particulars: for extinction value: 10 mg/L solution, 1 cm path length; for molar extinction coefficient (ε): at λmax, toluene. As to the method: All percentages are weight percentages, unless otherwise indicated. Concentrations in parts per million (“ppm”) are calculated on a weight/volume basis. When a solvent is not specified for measurement of an absorption maximum, a hydrocarbon solvent is preferred. Extinction values are determined by measuring absorption in absorbance units (“AU”) with a 1 cm path length on 10 mg/L solutions. The term “petroleum hydrocarbons” refers to products having a predominantly hydrocarbon composition, although they may contain minor amounts of oxygen, nitrogen, sulfur or phosphorus; petroleum hydrocarbons are derived from petroleum refining processes; they include, for example, lubricating oil, hydraulic fluid, brake fluid, gasoline, diesel fuel, kerosene, jet fuel and heating oil. An “alkyl” group is a hydrocarbyl group having from one to twenty carbon atoms in a linear, branched or cyclic arrangement. Alkyl groups optionally have one or more double or triple bonds. Substitution on alkyl groups of one or more halo, hydroxy or alkoxy groups is permitted; alkoxy groups may in turn be substituted by one or more halo substituents. Preferably, alkyl groups have no halo or alkoxy substituents, and most preferably, alkyl groups are saturated and unsubstituted. A “heteroalkyl” group is an alkyl group in which at least one carbon has been replaced by O, NR, or S, wherein R is hydrogen, alkyl, aryl or aralkyl. An “aryl” group is a substituent derived from an aromatic hydrocarbon compound. An aryl group has a total of from six to twenty ring atoms, and has one or more rings which are separate or fused. An “aralkyl” group is an “alkyl” group substituted by an “aryl” group. A “heterocyclic” group is a substituent derived from a heterocyclic compound having from five to twenty ring atoms, at least one of which is nitrogen, oxygen or sulfur. […] Substitution on aryl or heterocyclic groups of one or more of the following groups: halo, cyano, nitro, hydroxy, alkoxy, alkyl, heteroalkyl, alkanoyl, amino, or amino substituted by one or more of alkyl, aryl, aralkyl, heterocyclic, heteroalkyl or alkanoyl is permitted, with substitution by one or more halo groups being possible on alkyl, heteroalkyl, alkanoyl or alkoxy groups. […] In one preferred embodiment of the invention, aryl and heterocyclic groups are unsubstituted or substituted only by alkyl groups. An “aromatic heterocyclic” group is a heterocyclic group derived from an aromatic heterocyclic compound.
The absorption maxima, λmax, of several substituted anthraquinone dyes of formula (I), measured in xylene, are provided in the following table. For all of the dyes listed, R^4 and R^6 are hydrogen.

The next series is described as follows: Solubility in xylene. Type of series: physicochemical. The note with it: weight percentage. As to the method:
A mixture of leuco-1,4,5,8-tetrahydroxyanthraquinone (5.91 g), sodium dithionite (1.09 g) and 1-hexanol (175.2 g) was stirred while adding 2-ethylhexylamine (24.08 g). The mixture was heated to reflux (148-152° C.), maintained at reflux for 6-6.5 hours, and then cooled to ambient temperature. The precipitate was collected and washed thoroughly with methanol and water, and dried. The yield of dried isolated product was 7.0 g. Approximately another 1.9 g was present in the mother liquor, for a total yield of 8.9 g (90%). This material has a maximum absorption band (λmax) at a wavelength of 692 nm in xylene, or 688 nm in cyclohexane, with an extinction value of 0.640 AU in xylene and 0.660 AU in cyclohexane for a 10 mg/L solution. The solubility of the title compound in xylene is approximately 20%.

Consider `CCCCc1ccc(Nc2c(C#N)c(C#N)c(Nc3ccc(CCCC)cc3)c3c2C(=O)c2c(Nc4ccc(CCCC)cc4)c(C#N)c(C#N)c(Nc4ccc(CCCC)cc4)c2C3=O)cc1` [1,4,5,8-tetra(4′-n-butylphenylamino)-2,3,6,7-tetracyanoanthraquinone], for which, in series [1] (in xylene), the “maximum absorption band (λmax) wavelength” value (“maximum absorption band” for short) is listed as 900 nm and the extinction value was 0.19 AU.

As to `CCCCc1ccc(Nc2ccc(Nc3ccc(CCCC)cc3)c3c2C(=O)c2c(Nc4ccc(CCCC)cc4)c(C#N)c(C#N)c(Nc4ccc(CCCC)cc4)c2C3=O)cc1` [1,4,5,8-tetra-(4′-n-butylphenylamino)-2,3-dicyanoanthraquinone], in series [1] (in xylene), the “maximum absorption band” value is 835 nm and the extinction value was 0.342 AU.

Turning to `CCCCC(CC)CNc1ccc(NCC(CC)CCCC)c2c1C(=O)c1c(O)ccc(O)c1C2=O` (centres unmarked) [Example 1, 1,4-di-(2-ethylhexylamino)-5,8-dihydroxyanthraquinone], the “maximum absorption band” value in series [1] (in cyclohexane) was 688 nm; in series [1] (in xylene), 692 nm. Besides, the extinction value in series [1] (in cyclohexane) amounted to 0.660 AU; in series [1] (in xylene), 0.640 AU. Further, the “λmax, nm” value in series [1] (measured in xylene, dyes of formula (I), R^4 and R^6 hydrogen) stood at 692 nm. Besides, in the series “Solubility in xylene”, the solubility in xylene result is recorded as “approximately 20%”.

Regarding `CCCCNc1c(C#N)c(C#N)c(NCCCC)c2c1C(=O)c1ccccc1C2=O` [Example 2, 1,4-di-(n-butylamino)-2,3-dicyanoanthraquinone], in series [1] (in xylene), the “maximum absorption band” value was 700 nm and the extinction value turned out to be 0.23 AU.

Turning to `CCCCc1ccc(Nc2cccc3c2C(=O)c2c(Nc4ccc(CCCC)cc4)ccc(Nc4ccc(CCCC)cc4)c2C3=O)cc1` [Example 4, 1,4,5-tri(4-n-butylphenylamino)anthraquinone], in series [1] (in toluene), the “maximum absorption band” value is given as 675 nm.

`O=C1c2c(Nc3ccccc3)ccc(Nc3ccccc3)c2C(=O)c2c(Nc3ccccc3)ccc(Nc3ccccc3)c21` [Example 5, 1,4,5,8-tetra(phenylamino)anthraquinone]: in series [1], the “molar extinction coefficient (ε)” value was ~30,500. For the same compound, the “maximum absorption band” value in series [1] (in toluene) is reported as 750 nm.

On to `CCCCc1ccc(Nc2ccc(Nc3ccc(CCCC)cc3)c3c2C(=O)c2c(Nc4ccc(CCCC)cc4)ccc(Nc4ccc(CCCC)cc4)c2C3=O)cc1` [Example 6, 1,4,5,8-tetra(4-n-butylphenylamino)anthraquinone], for which the “molar extinction coefficient (ε)” value in series [1] is ~36,900. Besides, in series [1] (in toluene), the “maximum absorption band” value was 762 nm.

Source of the values: patent US20040250469A1, “Method for marking hydrocarbons with substituted anthraquinones” (priority 2003, published 2004).
